Assay results as given in patent US12528790B2, “Amide derivative having antiviral activity” (Shionogi & Co., Ltd., priority 2020, dated 2026).
pEC50: −log10 of the molar value. Where two headings read alike, the source gives them in different places.

Columns and labels:
RSV A2 strain = experiment: In vitro CPE (CytoPathic Effect) inhibition effect evaluation test, RSV type A; type: cell-based; settings: human respiratory syncytial virus
Outline: (§1)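 HEp-2 cells (2.4×10^5 cells/mL, 2% FBS E-MEM) were infected with RSV alongside 3-fold compound dilutions and incubated at 37 °C, 4 days for A2 and 5 days for B Wash/18537. Viable cells quantified by CellTiter-Glo 2.0 luminescence; EC50 by nonlinear regression as 50% CPE inhibition.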

[1] = test system: RSV B (Wash/18537 strain); experiment: In vitro CPE (CytoPathic Effect) inhibition effect evaluation test, RSV type B; type: cell-based; settings: human respiratory syncytial virus
Outline: as §1

[2] = inhibitory effect against RSV type A (RSV A2 strain), HEp-2 cells, CPE inhibition, read-out: EC50
[3] = inhibitory effect against RSV type B, CPE inhibition, read-out: EC50

Row | SMILES | pEC50 (RSV A2 strain; [2]) | pEC50 [1, 3] | pEC50 (RSV A2 strain; HEp-2, 96 h, read-out: EC50, inhibitory effect against RSV type A (CPE inhibition)) | pEC50 ([1]; HEp-2, 120 h, HEp-2 cells, RSV B (Wash/18537 strain), 5 days, CellTiter-Glo, read-out: EC50, inhibitory effect against RSV type B (CPE inhibition))
1 | CC(F)(F)c1nc(-c2cn(C3CCOCC3)c3cc(OC4CC(N5CC(F)(F)C5)C4)ccc23)ncc1C(=O)NC1(C(=O)O)C2CC3CC(C2)CC1C3 (single isomer, unassigned) [Compound I-621] | > 8.00 | > 8.00 |  | 
2 | CC(F)(F)c1nc(-c2cn(C3CCC(F)(F)CC3)c3cc(O[C@H]4CC[C@H](N5CC(F)(F)C5)CC4)ccc23)ncc1C(=O)NC1(C(=O)O)C2CC3CC(C2)CC1C3 (stereo partly drawn) [Compound I-481] | > 8.00 | > 8.00 |  | 
3 | O=C(NC1(C(=O)O)C2CC3CC(C2)CC1C3)c1cnc(-c2cn(C3CCC(F)CC3)c3cc(O[C@H]4CC[C@H](N5CC(F)(F)C5)CC4)ccc23)nc1C(F)(F)F (single isomer, unassigned) [Compound I-509] | > 8.00 | > 8.00 |  | 
4 | CC(F)(F)c1nc(N2CC3(CCOCC3)c3cc(OC4CCN(CC(F)(F)F)CC4)ncc32)ncc1C(=O)NC1(C(=O)O)C2CC3CC(C2)CC1C3 (stereo not drawn) [Compound I-526] | > 8.00 | > 8.00 |  | 
5 | O=C(NC1(C(=O)O)C2CC3CC(C2)CC1C3)c1cnc(N2CC3(CCCCC3)c3cc(OC4CCN(C5CC(F)(F)C5)CC4)ccc32)nc1C(F)(F)F (stereo not drawn) [Compound I-393] | > 8.00 | 7.00 to 8.00 |  | 
6 | O=C(NC1(C(=O)O)C2CC3CC(C2)CC1C3)c1ccc(-c2cn(-c3ccccc3)c3cc(OC4CCN(c5ncccn5)CC4)ccc23)nc1C(F)(F)F (stereo not drawn) [Compound I-148] |  |  | 8.82 | 8.55
7 | CC(F)(F)c1nc(N2CC3(CCOCC3)c3cc(OC4CCN(CC5COC5)CC4)ccc32)ncc1C(=O)NC1(C(=O)O)C2CC3CC(C2)CC1C3 (stereo not drawn) [Compound I-532] | > 8.00 | 7.00 to 8.00 |  | 
8 | CC(F)(F)c1nc(N2CC3(CCCCC3)c3cc(OC4CCC5(CC4)COC5)ccc32)ncc1C(=O)NC1(C(=O)O)C2CC3CC(C2)CC1C3 (stereo not drawn) [Compound I-401] | > 8.00 | 7.00 to 8.00 |  | 
9 | CC(=O)N1CC(N2CCC(Oc3ccc4c(c3)C3(CCCCC3)CN4c3ncc(C(=O)NC4(C(=O)O)C5CC6CC(C5)CC4C6)c(C(F)(F)F)n3)CC2)C1 (stereo not drawn) [Compound I-492] | > 8.00 | 7.00 to 8.00 |  | 
10 | CC(F)(F)c1nc(N2CC3(CCOCC3)c3cc(O[C@H]4CC[C@H](c5ncc(F)cn5)CC4)ccc32)ncc1C(=O)NC1(C(=O)O)C2CC3CC(C2)CC1C3 (stereo partly drawn) [Compound I-562] | > 8.00 | > 8.00 |  | 
11 | O=C(NC1(C(=O)O)C2CC3CC(C2)CC1C3)c1ccc(-c2cn(S(=O)(=O)C3CC3)c3cc(OC4CCN(c5ncccn5)CC4)ccc23)nc1C(F)(F)F (stereo not drawn) [Compound I-272] | > 8.00 | 7.00 to 8.00 |  | 
12 | O=C(NC1(C(=O)O)C2CC3CC(C2)CC1C3)c1cnc(N2CC3(CCCCC3)c3cc(OC4CCN(CC(F)(F)F)C4)ccc32)nc1C(F)(F)F (stereo not drawn) [Compound I-517] | > 8.00 | 7.00 to 8.00 |  | 
13 | CC(F)(F)c1nc(N2CC3(CCCCC3)c3cc(O[C@H]4CC[C@H](n5ccnn5)CC4)ccc32)ncc1C(=O)NC1(C(=O)O)C2CC3CC(C2)CC1C3 (stereo partly drawn) [Compound I-563] | > 8.00 | > 8.00 |  | 
14 | O=C(NC1(C(=O)O)C2CC3CC(C2)CC1C3)c1cnc(N2CC3(CCCCC3)c3cc(OC4CCN(C5CSC5)CC4)ccc32)nc1C(F)(F)F (stereo not drawn) [Compound I-485] | > 8.00 | 7.00 to 8.00 |  | 
15 | CC(F)(F)c1nc(N2CC3(CCCCC3)c3cc(OC4CCN(c5ncc(F)cn5)CC4)ncc32)ncc1C(=O)NC1(C(=O)O)C2CC3CC(C2)CC1C3 (stereo not drawn) [Compound I-557] | > 8.00 | > 8.00 |  | 
16 | O=C(NC1(C(=O)O)C2CC3CC(C2)CC1C3)c1cnc(N2CC3(CCOCC3)c3cc(C(=O)N4CC(C(F)(F)F)C4)ccc32)nc1C(F)(F)F (stereo not drawn) [Compound I-490] | > 8.00 | > 8.00 |  | 
17 | COC[C@H](C)n1cc(-c2ncc(C(=O)NC3(C(=O)O)C4CC5CC(C4)CC3C5)c(C(F)(F)F)n2)c2ccc(O[C@H]3CC[C@H](N4CC(F)(F)C4)CC3)cc21 (stereo partly drawn) [Compound I-508] | > 8.00 | > 8.00 |  | 
18 | O=C(NC1(C(=O)O)C2CC3CC(C2)CC1C3)c1cnc(N2CC3(CCCCC3)c3cc(C(=O)N4CCN(c5ncccn5)CC4)ccc32)nc1C(F)(F)F (stereo not drawn) [Compound I-444] | > 8.00 | > 8.00 |  | 
19 | O=C(NC1(C(=O)O)CCCCC1)c1cnc(N2CCc3cc(OCCC4CCOCC4)ccc32)nc1C(F)(F)F [Compound I-8] | 7.00 to 8.00 | 7.00 to 8.00 |  | 
20 | O=C(NC1(C(=O)O)C2CC3CC(C2)CC1C3)c1cnc(-c2cn(C3CCOCC3)c3cc(O[C@H]4CC[C@@H](N5CC(F)(F)C5)CC4)ccc23)nc1C(F)(F)F (stereo partly drawn) [Compound I-614] | > 8.00 | > 8.00 |  | 
21 | CCC1(CC)CN(c2ncc(C(=O)NC3(C(=O)O)C4CC5CC(C4)CC3C5)c(C(C)(F)F)n2)c2ccc(OC3CCN(CC(F)(F)F)CC3)cc21 (stereo not drawn) [Compound I-589] | > 8.00 | > 8.00 |  | 
